The SangsterLogP compilation

Structure (SMILES)	logP
CCCCC(CC)C(=O)N1c2ccc(C)cc2C2CN(C)CCC21 (stereo not given)	4.14
CC(=O)N1c2ccc(C)cc2[C@H]2CN(C)CC[C@H]21 (relative stereo)	1.25
CCCCCCC(=O)N1c2ccc(C)cc2[C@H]2CN(C)CC[C@H]21 (relative stereo)	3.57
CCCCCCCCC(=O)N1c2ccc(C)cc2[C@H]2CN(C)CC[C@H]21 (relative stereo)	4.41
CCCCCCCCCC(=O)N1c2ccc(C)cc2[C@H]2CN(C)CC[C@H]21 (relative stereo)	4.83
CCCCCCCCCCCC(=O)N1c2ccc(C)cc2[C@H]2CN(C)CC[C@H]21 (relative stereo)	5.66
CCCCCCCCCCCCCC(=O)N1c2ccc(C)cc2[C@H]2CN(C)CC[C@H]21 (relative stereo)	6.7
CCCCCCCCCCCCCCCC(=O)N1c2ccc(C)cc2[C@H]2CN(C)CC[C@H]21 (relative stereo)	7.33
Cc1ccc2c(c1)[C@H]1CN(C)CC[C@H]1N2 (relative stereo)	1.6
Cc1ccc2c(c1)[C@H]1CN(C)CC[C@H]1N2C(=O)C=Cc1ccccc1 (relative stereo)	3.49
